System: TNFα release from activated monocytic cells
Assay: Cytokine release assay in vitro (TNFα, ELISA)
Assay type: cell-based, human
Conditions: 1 μM, 18 hours
Protocol: Human donor monocyte-derived dendritic cells are cultured in RPMI-1640 containing 10% fetal bovine serum for six days in the presence of 10 ng/mL IL-4 and 200 ng/mL GM-CSF. The cells are activated with various activation stimuli: 10 ng/mL LPS (Sigma), 5 μg/mL recombinant human CD-40 ligand (R&D Systems), or 5 μM Human CpG-DNA (HyCult Biotechnology) in the presence of prostaglandin E2 (PGE2) (1 μM), vehicle control (DMSO) or test substances (1 μM) for 18 hours. The levels of cell culture supernatant TNFα for individual donors is measured by commercial ELISA kits.

CCCCC[C@H](O)/C=C/[C@H]1[C@H](O)CC(=O)[C@@H]1C/C=C\CCCC(=O)O [PGE2, Prostaglandin E2]
TNFα (CD40 ligand, Donor 3): 147.9 pg/mL | TNFα (CD40 ligand, Donor 4): 87.0 pg/mL | TNFα (CD40 ligand, Donor 6): 54.2 pg/mL | TNFα (CpG, Donor 1): 104.5 pg/mL | TNFα (CpG, Donor 3): 70.0 pg/mL | TNFα (CpG, Donor 6): 106.2 pg/mL | TNFα (LPS, Donor 4): 0.0 pg/mL | TNFα (LPS, Donor 6): 174.8 pg/mL

— patent publication US7563924B2, “9-chloro-15-deoxyprostaglandin derivatives, process for their preparation and their use as medicaments” (Schering Aktiengesellschaft, priority 2005, dated 2009)
